Experimental data as given in the supplement of paper PMC10307832.

compound: CC(C)C[C@H](NC(=O)[C@H](CCc1ccccc1)NC(=O)CN1CCOCC1)C(=O)N[C@@H](Cc1ccccc1)C(=O)N[C@@H](CC(C)C)C(=O)[C@@]1(C)CO1 [Carfilzomib] + NC(=O)Nc1cc(-c2cccc(F)c2)sc1C(=O)N[C@H]1CCCNC1 [AZD7762] (partner 0.2 µM); assay: relative viability (nuclei count vs DMSO), 5 days (fraction); higher = more cells survive; details: first compound 0.1 µM
Procedure, shortened: (§1)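 Lung cancer cell lines, seeded in 1536-well plates, were treated the following day by pin tool with a single drug or with five library-drug doses (not always all listed) in √10 steps on top of a fixed anchor-drug dose. Cells were fixed and nuclei stained in one step after 5 days, and nuclei were counted. Relative viability is the nuclei count for treated wells divided by that for vehicle wells, reported as medians of duplicate plates.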

Cell Line | relative viability
NCI-H1975 | 0.19
NCI-H1993 | 0.503
NCI-H2085 | 0.293
NCI-H2087 | 0.0622
NCI-H2126 | 0.697
NCI-H2170 | 0.238
NCI-H2342 | 0.347
NCI-H2347 | 0.289
NCI-H2405 | 0.262

compound: C[C@@H](Oc1cc(-c2cnn(C3CCNCC3)c2)cnc1N)c1c(Cl)ccc(F)c1Cl [Crizotinib] + Cc1cc(Nc2cc(N3CCN(C)CC3)nc(Sc3ccc(NC(=O)C4CC4)cc3)n2)n[nH]1 [Tozasertib] (partner 0.1 µM); assay: as above; details: first compound 0.01 µM
Procedure, shortened: as §1

Cell Line | relative viability
LU99A | 0.231
LXF-289 | 0.221
NCI-H23 | 0.414
NCI-H322M | 0.482
NCI-H358 | 0.0979
NCI-H441 | 0.527
NCI-H460 | 0.368
NCI-H522 | 0.509
NCI-H596 | 0.887
NCI-H647 | 0.267
NCI-H650 | 0.772
NCI-H838 | 0.243
NCI-H1355 | 0.568
NCI-H1395 | 0.67
NCI-H1437 | 0.379
NCI-H1648 | 0.548

Cell Line | relative viability
NCI-H1651 | 0.697
NCI-H1666 | 0.547
NCI-H1734 | 0.247
NCI-H1755 | 0.614
NCI-H1915 | 0.49
NCI-H1944 | 0.254
NCI-H1975 | 0.644
NCI-H1993 | 0.558
NCI-H2085 | 0.763
NCI-H2087 | 0.254
NCI-H2126 | 0.721
NCI-H2170 | 0.683
NCI-H2342 | 0.489
NCI-H2347 | 0.462
NCI-H2405 | 0.702

same assay, conditions: first compound 0.03162 µM

Cell Line | relative viability
LU99A | 0.27
LXF-289 | 0.201
NCI-H23 | 0.36
NCI-H322M | 0.515
NCI-H358 | 0.105
NCI-H441 | 0.609
NCI-H460 | 0.441
NCI-H522 | 0.492
NCI-H596 | 0.804
NCI-H647 | 0.305
NCI-H650 | 0.726
NCI-H727 | 0.605
NCI-H838 | 0.296
NCI-H1355 | 0.545
NCI-H1395 | 0.734
NCI-H1437 | 0.409

Cell Line | relative viability
NCI-H1648 | 0.599
NCI-H1651 | 0.7
NCI-H1666 | 0.586
NCI-H1734 | 0.27
NCI-H1755 | 0.563
NCI-H1915 | 0.463
NCI-H1944 | 0.248
NCI-H1975 | 0.705
NCI-H1993 | 0.538
NCI-H2085 | 0.801
NCI-H2087 | 0.213
NCI-H2126 | 0.813
NCI-H2170 | 0.793
NCI-H2342 | 0.492
NCI-H2347 | 0.564
NCI-H2405 | 0.811

same assay, conditions: first compound 0.1 µM

Cell Line | relative viability
LU99A | 0.256
LXF-289 | 0.18
NCI-H23 | 0.307
NCI-H322M | 0.48
NCI-H358 | 0.118
NCI-H441 | 0.536
NCI-H460 | 0.474
NCI-H522 | 0.503
NCI-H596 | 0.924
NCI-H647 | 0.248
NCI-H650 | 0.721
NCI-H727 | 0.612
NCI-H838 | 0.246
NCI-H1355 | 0.555
NCI-H1395 | 0.764
NCI-H1437 | 0.406

Cell Line | relative viability
NCI-H1651 | 0.701
NCI-H1666 | 0.665
NCI-H1734 | 0.253
NCI-H1755 | 0.617
NCI-H1915 | 0.439
NCI-H1944 | 0.252
NCI-H1975 | 0.782
NCI-H1993 | 0.552
NCI-H2085 | 0.775
NCI-H2087 | 0.254
NCI-H2126 | 0.819
NCI-H2170 | 0.669
NCI-H2342 | 0.584
NCI-H2347 | 0.615
NCI-H2405 | 0.761

same assay, conditions: first compound 0.3162 µM

Cell Line | relative viability
LU99A | 0.222
LXF-289 | 0.157
NCI-H322M | 0.49
NCI-H358 | 0.0922
NCI-H460 | 0.248
NCI-H522 | 0.596
NCI-H596 | 0.861
NCI-H647 | 0.26
NCI-H650 | 0.616
NCI-H838 | 0.266
NCI-H1355 | 0.515
NCI-H1395 | 0.738
NCI-H1437 | 0.384
NCI-H1648 | 0.497
NCI-H1651 | 0.723
NCI-H1666 | 0.648
NCI-H1755 | 0.467
NCI-H1944 | 0.247
NCI-H1975 | 0.705
NCI-H1993 | 0.588
NCI-H2126 | 0.8
NCI-H2170 | 0.792
NCI-H2342 | 0.524
NCI-H2347 | 0.527
NCI-H2405 | 0.706

same assay, conditions: first compound 1 µM

Cell Line | relative viability
LU99A | 0.241
LXF-289 | 0.197
NCI-H23 | 0.363
NCI-H322M | 0.459
NCI-H358 | 0.0946
NCI-H441 | 0.837
NCI-H460 | 0.455
NCI-H522 | 0.471
NCI-H647 | 0.204
NCI-H650 | 0.809
NCI-H727 | 0.634
NCI-H838 | 0.269
NCI-H1355 | 0.598
NCI-H1395 | 0.74
NCI-H1437 | 0.374
NCI-H1648 | 0.47

Cell Line | relative viability
NCI-H1651 | 0.621
NCI-H1666 | 0.539
NCI-H1734 | 0.257
NCI-H1755 | 0.549
NCI-H1915 | 0.382
NCI-H1944 | 0.254
NCI-H1975 | 0.746
NCI-H1993 | 0.588
NCI-H2085 | 0.884
NCI-H2087 | 0.274
NCI-H2126 | 0.808
NCI-H2170 | 0.681
NCI-H2342 | 0.485
NCI-H2347 | 0.422
NCI-H2405 | 0.697

compound: C[C@@H](Oc1cc(-c2cnn(C3CCNCC3)c2)cnc1N)c1c(Cl)ccc(F)c1Cl [Crizotinib] + O=C(CCCCCCC(=O)Nc1ccccc1)NO [Vorinostat] (partner 1 µM); assay: as above; details: first compound 0.01 µM
Procedure, shortened: as §1

Cell Line | relative viability
LU99A | 0.448
LXF-289 | 0.75
NCI-H23 | 0.465
NCI-H358 | 0.793
NCI-H441 | 0.799
NCI-H460 | 0.709
NCI-H522 | 0.851
NCI-H596 | 0.638
NCI-H650 | 0.528
NCI-H727 | 1.16
NCI-H838 | 0.715
NCI-H1355 | 0.638
NCI-H1395 | 0.602
NCI-H1437 | 0.832
NCI-H1651 | 0.572
NCI-H1666 | 1.14
NCI-H1734 | 0.866
NCI-H1755 | 0.668
NCI-H1915 | 0.601
NCI-H1944 | 0.446
NCI-H1975 | 0.682
NCI-H1993 | 0.699
NCI-H2085 | 0.756
NCI-H2087 | 0.679
NCI-H2126 | 0.636
NCI-H2342 | 0.799
NCI-H2347 | 0.551
NCI-H2405 | 0.955

same assay, conditions: first compound 0.03162 µM

Cell Line | relative viability
LU99A | 0.515
LXF-289 | 0.799
NCI-H23 | 0.648
NCI-H322M | 0.884
NCI-H358 | 0.658
NCI-H441 | 0.774
NCI-H460 | 0.69
NCI-H522 | 1.03
NCI-H596 | 0.681
NCI-H647 | 0.71
NCI-H650 | 0.414
NCI-H727 | 1.1
NCI-H1355 | 0.629
NCI-H1395 | 0.827
NCI-H1437 | 0.832
NCI-H1648 | 0.412

Cell Line | relative viability
NCI-H1651 | 0.424
NCI-H1666 | 0.999
NCI-H1734 | 0.787
NCI-H1755 | 0.779
NCI-H1915 | 0.518
NCI-H1944 | 0.508
NCI-H1975 | 0.693
NCI-H1993 | 0.901
NCI-H2085 | 0.733
NCI-H2087 | 0.689
NCI-H2126 | 0.835
NCI-H2170 | 0.838
NCI-H2342 | 0.844
NCI-H2347 | 0.606
NCI-H2405 | 1.01

same assay, conditions: first compound 0.1 µM

Cell Line | relative viability
LU99A | 0.512
LXF-289 | 0.757
NCI-H23 | 0.596
NCI-H322M | 1
NCI-H358 | 0.718
NCI-H441 | 0.63
NCI-H460 | 0.688
NCI-H522 | 0.803
NCI-H596 | 0.742
NCI-H647 | 0.575
NCI-H650 | 0.396
NCI-H727 | 1.3
NCI-H838 | 0.728
NCI-H1355 | 0.625
NCI-H1395 | 0.794
NCI-H1437 | 0.857

Cell Line | relative viability
NCI-H1648 | 0.341
NCI-H1651 | 0.582
NCI-H1666 | 1.07
NCI-H1734 | 0.784
NCI-H1755 | 0.743
NCI-H1915 | 0.502
NCI-H1944 | 0.493
NCI-H1975 | 0.695
NCI-H1993 | 0.68
NCI-H2087 | 0.766
NCI-H2126 | 0.682
NCI-H2170 | 0.746
NCI-H2342 | 0.714
NCI-H2347 | 0.671
NCI-H2405 | 1.08

same assay, conditions: first compound 0.3162 µM

Cell Line | relative viability
LU99A | 0.459
LXF-289 | 0.599
NCI-H322M | 0.823
NCI-H358 | 0.725
NCI-H441 | 0.768
NCI-H460 | 0.852
NCI-H522 | 0.877
NCI-H596 | 0.62
NCI-H647 | 0.764
NCI-H727 | 1.16
NCI-H838 | 0.687
NCI-H1355 | 0.564
NCI-H1395 | 0.53
NCI-H1437 | 0.867
NCI-H1648 | 0.506
NCI-H1651 | 0.398
NCI-H1666 | 0.978
NCI-H1755 | 0.757
NCI-H1915 | 0.458
NCI-H1944 | 0.571
NCI-H1975 | 0.708
NCI-H1993 | 0.468
NCI-H2085 | 0.782
NCI-H2087 | 0.94
NCI-H2126 | 0.371
NCI-H2170 | 0.795
NCI-H2342 | 0.713
NCI-H2347 | 0.534
NCI-H2405 | 0.535

same assay, conditions: first compound 1 µM

Cell Line | relative viability
LU99A | 0.507
LXF-289 | 0.786
NCI-H23 | 0.737
NCI-H322M | 0.972
NCI-H358 | 0.697
NCI-H441 | 0.965
NCI-H460 | 0.722
NCI-H522 | 0.867
NCI-H596 | 0.748
NCI-H647 | 0.643
NCI-H650 | 0.444
NCI-H727 | 1.37
NCI-H838 | 0.701
NCI-H1355 | 0.613
NCI-H1395 | 0.554
NCI-H1437 | 0.849

Cell Line | relative viability
NCI-H1648 | 0.619
NCI-H1651 | 0.61
NCI-H1666 | 0.955
NCI-H1734 | 0.807
NCI-H1755 | 0.764
NCI-H1915 | 0.517
NCI-H1944 | 0.54
NCI-H1975 | 0.729
NCI-H1993 | 0.555
NCI-H2085 | 0.742
NCI-H2087 | 0.731
NCI-H2170 | 0.828
NCI-H2342 | 0.814
NCI-H2347 | 0.536
NCI-H2405 | 0.959
